Experimental data as given in patent publication US4797362A (priority 1985, dated 1989).
Like-named read-outs stand apart in the source and are kept apart here. Numbered stars: 1 amine (or outer) side, 2 acyl side, 3 side chain; on linkers, the order of the positions; unused ones are H or OH. Peptide text beside a SMILES is read from it. CO = O=C([*:1])[*:2]

Legend:
[1] = tested on: alkaline protease Ya (enzyme Ya) produced by Bacillus sp. Y (FERM BP-1029); type: biochemical; conditions: for Relative Activity Enzyme Ya: pH 7.2, 30 min
[2] = tested on: alkaline protease Yb (enzyme Yb) produced by Bacillus sp. Y (FERM BP-1029); type: biochemical; conditions: for Relative Activity Enzyme Yb: pH 7.2, 30 min

Molecule	Inhibition of enzyme Ya (in words) [1]	Relative Activity Enzyme Ya ([1]; 5000 µM)	Inhibition of enzyme Yb (in words) [2]	Relative Activity Enzyme Yb ([2]; 5000 µM)	Relative Activity Enzyme Ya ([1]; 1000 µM)	Relative Activity Enzyme Yb ([2]; 1000 µM)	Relative Activity Enzyme Ya [1]	Relative Activity Enzyme Yb [2]
O=C(O)CN(CCN(CC(=O)O)CC(=O)O)CC(=O)O [EDTA]	not inhibited	97	not inhibited	100				
O=C(O)c1cc[c]([Hg][Cl])cc1 [PCMB]	not inhibited		not inhibited		122	92		
O=S(=O)(F)Cc1ccccc1 [PMSF]	inhibited		inhibited		0	1		
CC(C)[C@H](NC(=O)[C@H](CCCNC(=N)N)NC(=O)N[C@@H](Cc1ccccc1)C(=O)O)C(=O)N[C@H](C=O)CCCNC(=N)N [Antipain] ({Phe-CO}-Arg-Val-Arg-aldehyde)	not inhibited		not inhibited				124	87
Chymostatin	not inhibited		not inhibited				77	75
NC(N)=O [Urea]							130	82
